Data as given in US11141423B2, “Methods of screening compounds useful for treatment of a liver disease” (Icahn School of Medicine at Mount Sinai, priority 2010, dated 2021).

Tests used:
DAGL = details: cited from earlier work
CB1R-AT1R heteromer [1] = molecular target: T1, CB1R-AT1R heteromer (UniProt P30556+P47746); assay: Ang II-mediated pERK in Neuro2A-AT1R cells; assay type: cell-based
T1 construct: Neuro2A cells expressing endogenous CB1R and recombinant AT1R; expressed in transfected cells; host or cells: Neuro2A stably expressing AT1R (CB1R endogenous)
Method: (§1) Generation of HEK293-Transfected Cells and Neuro2A Cell Line Stably Expressing AT1R. These cell lines were generated using standard procedure of transfection and antibiotic selection of expressing cells. Screening of positive cells was carried out by immunostaining of the receptors to evaluate the homogeneity of expression in the clones.
RNAi-mediated CB1R and βarrestin-2 downregulation.
Neuro2A cells expressing endogenous CB1R and recombinant AT1R were pretreated with vehicle or THL (2 μM) for 3 hours in serum free media and stimulated with vehicle (CTL=control) or with the receptor ligand (angiotensin II) for 3 minutes. […] ERK phosphorylation was assessed by Western blot using antibodies to pERK and ERK (n=3-5). […] The cells were processed for infrared detection of pERK.

AT1R = molecular target: T2, AT1R (Rattus norvegicus, UniProt P25095); assay: Ang II-mediated pERK in control HSCs (cHSCs), Western blot; assay type: cell-based; details: cHSCs from control rats; Ang II stimulation; THL pretreatment 10 or 30 minutes
T2 construct: a profibrogenic receptor, AT1R, which was also expressed in cHSCs; endogenous in cells; host or cells: primary hepatic stellate cells from control-diet Sprague-Dawley rats (cHSCs)
T2 sequence (P25095 1-359): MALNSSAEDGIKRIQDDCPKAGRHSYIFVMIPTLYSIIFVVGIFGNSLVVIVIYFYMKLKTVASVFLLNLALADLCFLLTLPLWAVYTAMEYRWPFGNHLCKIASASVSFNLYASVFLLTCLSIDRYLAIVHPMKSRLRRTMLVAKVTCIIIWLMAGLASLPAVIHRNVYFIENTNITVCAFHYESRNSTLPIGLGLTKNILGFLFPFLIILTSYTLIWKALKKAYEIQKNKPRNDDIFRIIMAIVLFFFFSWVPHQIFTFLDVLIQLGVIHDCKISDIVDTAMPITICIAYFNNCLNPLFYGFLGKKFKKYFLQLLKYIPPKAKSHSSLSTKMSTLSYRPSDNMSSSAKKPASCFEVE
Source text: HSCs from ethanol treated rats were generated in the laboratory of Dr. Natalia Nieto: Rats (300 g female Sprague-Dawley, N=10/group) were fed the control or ethanol Lieber-DeCarli diets for 8 months (Lieber and DeCarli, 1989). Animals received humane care according to the criteria outlined in the Guide for Care and Use of Laboratory Animals. Details regarding pathology of the liver of the control and alcohol fed rats are described in (Cubero and Nieto, 2008; Urtasun et al., 2009).
Isolation of Hepatic Stellate Cells: These were isolated as described before. (Friedman, S. L. Hepatic stellate cells: protean, multifunctional, and enigmatic cells of the liver. Physiol Rev 88, 125-72 (2008); Teixeira-Clerc, F. et al. CB1 cannabinoid receptor antagonism: a new strategy for the treatment of liver fibrosis. Nat Med 12, 671-6 (2006)).

[2] = system: α-SMA, TGFβ, pro-collagen α III and pro-collagen α I; assay: Ang II-mediated fibrogenic response in eHSC, real-time PCR; assay type: cell-based, rat; details: eHSCs, 4 hours, mRNA normalized to GAPDH
Method: (§2) Reverse Transcription and Real-Time PCR. Total RNA was isolated from 3×10^8 HSCs using the TRIzol method (Invitrogen, Carlsbad, Calif., USA). RNA (1.0 μg) was reverse-transcribed in 20 μl of buffer containing 50 μM oligo(dT)20, 25 mM MgCl2, 0.1 M dithiothreitol, 40 U/μl RNaseOUT, and 200 U/μl SuperScript III RT for 50 min at 50° C. The reaction was stopped by incubating the samples at 85° C. for 5 min, and 40 μl of nuclease-free water was added. Real-time PCR was performed by using the Brilliant SYBR Green QPCR Master Mix. The PCR template source was either 30 ng of first-strand cDNA or purified DNA standard. Primer sequences used to amplify the desired cDNA are detailed in Table 2. Amplification was performed with a spectrofluorometric thermal cycler (Stratagene). After an initial denaturation step at 95° C. for 10 min, amplification was performed using 40 cycles of denaturation (95° C. for 30 s), annealing (56° C. for 1 min), and extension (72° C. for 1 min). To standardize mRNA levels, we amplified GAPDH, a housekeeping gene, as an internal control. […] For analysis of gene expression, after reverse transcription, the number of copies of mRNA for the indicated transcripts were determined by real-time PCR. Data were normalized to GAPDH mRNA and are expressed as the mean±SD (n=3 in quadruplicate).

[3] = system: α-SMA, TGFβ, pro-collagen α III and pro-collagen α I; assay: CGS21680-mediated fibrogenic response in eHSC, real-time PCR; assay type: cell-based, rat; details: eHSCs, 6 hours, mRNA normalized to GAPDH
Method: as §2, with “quadruplicate). […]” for “quadruplicate).”

CB1R-AT1R heteromer [4] = molecular target: T3, CB1R-AT1R heteromer (Homo sapiens, UniProt P21554+P30556); assay: Ang II-mediated pERK in HEK293 transfected with AT1R and CB1R; assay type: cell-based
T3 construct: expressed in transfected cells; host or cells: HEK293
Method: FIG. 3A. […] ERK phosphorylation was assessed by Western blot using antibodies to pERK and ERK. Data represent mean±SEM (n=4).
as §1

CB1R-AT1R heteromer [5] = molecular target: T4, CB1R-AT1R heteromer (Rattus norvegicus, UniProt P20272+P25095); assay: Ang II-mediated pERK in activated HSCs (eHSCs), Western blot; assay type: cell-based; details: eHSCs from ethanol treated rats; Ang II stimulation; THL pretreatment 10 or 30 minutes; pERK normalized to total ERK
T4 construct: endogenous in cells; host or cells: primary hepatic stellate cells from ethanol-fed Sprague-Dawley rats (eHSCs)
Source text: Animals received humane care according to the criteria outlined in the Guide for Care and Use of Laboratory Animals.
Isolation of Hepatic Stellate Cells: These were isolated as described before.

profibrogenic genes = assay: Profibrogenic gene expression in liver of CCl4 or vehicle treated mice; assay type: in vivo

T1 sequence (P47746 whole entry): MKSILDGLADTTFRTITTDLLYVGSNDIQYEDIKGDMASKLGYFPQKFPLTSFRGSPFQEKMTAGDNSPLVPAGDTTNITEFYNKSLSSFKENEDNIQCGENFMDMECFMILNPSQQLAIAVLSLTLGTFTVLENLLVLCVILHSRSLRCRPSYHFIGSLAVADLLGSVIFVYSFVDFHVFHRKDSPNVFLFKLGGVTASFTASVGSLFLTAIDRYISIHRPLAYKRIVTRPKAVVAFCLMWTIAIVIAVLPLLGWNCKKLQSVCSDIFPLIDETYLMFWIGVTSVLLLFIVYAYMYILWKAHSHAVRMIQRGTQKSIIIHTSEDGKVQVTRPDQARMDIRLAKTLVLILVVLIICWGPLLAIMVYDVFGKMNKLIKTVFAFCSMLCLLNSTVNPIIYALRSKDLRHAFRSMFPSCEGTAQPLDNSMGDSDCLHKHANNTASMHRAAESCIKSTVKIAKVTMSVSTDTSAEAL
T1 sequence (P30556 whole entry): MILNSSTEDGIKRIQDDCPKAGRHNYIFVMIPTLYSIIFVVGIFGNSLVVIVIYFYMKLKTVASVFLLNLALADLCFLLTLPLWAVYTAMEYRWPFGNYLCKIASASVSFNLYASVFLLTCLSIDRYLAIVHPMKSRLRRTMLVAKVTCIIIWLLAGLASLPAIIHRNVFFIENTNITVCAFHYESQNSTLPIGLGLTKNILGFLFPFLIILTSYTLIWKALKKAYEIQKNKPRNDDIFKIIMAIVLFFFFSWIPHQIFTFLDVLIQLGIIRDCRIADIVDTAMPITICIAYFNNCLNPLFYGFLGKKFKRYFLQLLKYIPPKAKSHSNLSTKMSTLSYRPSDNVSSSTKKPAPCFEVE
T3 sequence (P21554 whole entry): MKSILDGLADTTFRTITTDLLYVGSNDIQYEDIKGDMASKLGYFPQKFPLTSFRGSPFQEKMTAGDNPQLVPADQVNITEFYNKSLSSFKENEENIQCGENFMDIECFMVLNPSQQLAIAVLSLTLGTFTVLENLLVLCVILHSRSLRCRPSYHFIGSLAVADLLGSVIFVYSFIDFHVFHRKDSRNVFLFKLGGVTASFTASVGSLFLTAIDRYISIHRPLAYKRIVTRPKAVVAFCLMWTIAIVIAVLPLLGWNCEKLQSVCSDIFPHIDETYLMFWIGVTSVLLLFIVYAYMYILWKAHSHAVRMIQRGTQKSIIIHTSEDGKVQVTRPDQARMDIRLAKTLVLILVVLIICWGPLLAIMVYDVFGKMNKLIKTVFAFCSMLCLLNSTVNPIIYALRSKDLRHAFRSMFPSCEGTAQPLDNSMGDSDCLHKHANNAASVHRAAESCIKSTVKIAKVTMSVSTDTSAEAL
T3 sequence (P30556 whole entry): as the sequence (P30556 whole entry) above
T4 sequence (P20272 whole entry, one chain of several): as the sequence (P47746 whole entry) above, with D95E counted along it

O=C(NCCCCCCNC(=O)ON=C1CCCCC1)ON=C1CCCCC1 [RHC80267, 1,6-bis-(cyclohexyloximino-carbonylamino)-hexane]
Inhibition of DAGL versus other lipases (DAGL): inhibit DAGL at concentrations lower than those required to inhibit other lipases

CCCCC/C=C\C/C=C\C/C=C\C/C=C\CCCC(=O)OC(CO)CO [2-AG, 2-arachidonoyl glycerol]
Effect on THL-induced loss of Ang II-mediated signaling (CB1R-AT1R heteromer [1]): reversed
2-AG-mediated ERK1/2 phosphorylation (CB1R-AT1R heteromer [1]; THL pretreated Neuro2A-AT1, constant agonist concentration, increasing doses of 2-AG): concentration-dependent

Cc1c(C(=O)NN2CCCCC2)nn(-c2ccc(Cl)cc2Cl)c1-c1ccc(Cl)cc1 [SR141716]
Effect on Ang II-mediated ERK phosphorylation in cHSCs (AT1R): not
Effect on Ang II-mediated increase in expression of profibrogenic markers [2]: prevents
Effect on Ang II-mediated increase in expression of profibrogenic markers ([2]; listed as CB1R antagonist): completely blocked
Effect on CGS-mediated increase in expression of profibrogenic markers ([3]; listed as CB1R antagonist): completely blocked
Effect on CGS-mediated increase in expression of profibrogenic markers ([3]; listed as SR): prevents

CCCCCCCCCCC[C@@H](C[C@@H]1OC(=O)[C@H]1CCCCCC)OC(=O)[C@H](CC(C)C)NC=O [THL, tetrahydrolipstatin]
ERK1/2 phosphorylation upon agonist stimulation of the associated receptor (CB1R-AT1R heteromer [1]; Neuro2A-AT1, THL 2 μM, 3 hours, serum free media, angiotensin II 3 minutes): marked decrease
Effect on Ang II-mediated signaling (blocking 2-AG production) (CB1R-AT1R heteromer [1]; Neuro2A-AT1R): loss
Effect on Ang II-mediated ERK phosphorylation in cHSCs (AT1R): not
Effect on Ang II-mediated signaling (pERK) (CB1R-AT1R heteromer [4]; HEK293 co-expressing CB1R and AT1R, 10 nM Ang II 3 minutes, SR 1 μM, THL 1 μM, 1 hour pre-treatment): marked decrease
Effect on Ang II-mediated ERK phosphorylation in eHSCs (CB1R-AT1R heteromer [5]): decreased
Inhibition of DAGL versus other lipases (DAGL): inhibit DAGL at concentrations lower than those required to inhibit other lipases

Ang II: Angiotensin II, an agonist of AT1R (DRVYIHPF)
pERK levels at concentrations of Ang II superior to 10 nM (CB1R-AT1R heteromer [1]): decrease
pERK levels on Ang II stimulation (CB1R-AT1R heteromer [1]): dose-dependent rapid and transient enhancement
Increase in pERK on Ang II stimulation (CB1R-AT1R heteromer [4]): greater increase

pertussis toxin
Effect on AT1R signaling (Ang II pERK), G protein coupling (CB1R-AT1R heteromer [1]; cells co-expressing CB1R and AT1R, PTX 15 nM, 16 hours, forskolin 1 μM, 30 min): markedly inhibited

CCNC(=O)[C@H]1O[C@@H](n2cnc3c(N)nc(NCCc4ccc(CCC(=O)O)cc4)nc32)[C@H](O)[C@@H]1O [CGS21680]
Expression of profibrogenic genes in liver (profibrogenic genes; CCl4 treated mice, acute i.p. injection CGS21680 2 mg/kg, 6 hours): further increased
Expression of profibrogenic genes in liver (profibrogenic genes; non-fibrotic livers from vehicle-treated mice, CGS21680 2 mg/kg i.p.): did not elevate

CCCCCCC(C)(C)c1cc(O)c2c(c1)OC(C)(C)[C@@H]1CC=C(CO)C[C@@H]21 [Hu210]
Effect on AT1R signaling of a non-signaling concentration of CB1R agonist (CB1R-AT1R heteromer [1]): potentiates
Effect on THL-induced loss of Ang II-mediated signaling (CB1R-AT1R heteromer [1]): reversed
